Measurements taken from patent US20240391870A1 (Arcturus Therapeutics, Inc., priority 2023, published 2024).

Columns and labels:
[1] = Lipid nanoparticle size, PDI and encapsulation; type: physicochemical; details: Table 3; for Size (nm): lipid nanoparticle; for EE %: lipid nanoparticle encapsulation
Description: In the context of nucleic acids, full encapsulation may be determined by performing a membrane-impermeable fluorescent dye exclusion assay, which uses a dye that has enhanced fluorescence when associated with nucleic acid. Encapsulation is determined by adding the dye to a lipid formulation, measuring the resulting fluorescence, and comparing it to the fluorescence observed upon addition of a small amount of nonionic detergent. Detergent-mediated disruption of the lipid layer releases the encapsulated nucleic acid, allowing it to interact with the membrane-impermeable dye. Nucleic acid encapsulation may be calculated as E=(I0−I)/I0, where I and I0 refer to the fluorescence intensities before and after the addition of detergent.

[2] = Lipid nanoparticle size, PDI and encapsulation; type: physicochemical; details: Table 3
Mouse plasma stability = type: in vitro ADME, CD-1 mouse; details: 1 uM lipid
In short: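 Lipid at 1 μM starting concentration incubated in stirred CD-1 mouse plasma (sodium heparin) at 37° C.; samples at 0–120 min quenched with acetonitrile/methanol plus internal standard. LC-MS peak area relative to T=0 gave % remaining; T1/2 from first-order decay.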

hEPO = hEPO mRNA expression evaluation (hEPO-LNPs); type: in vivo, Balb/c mice; details: serum hEPO after 6 hr; for EPO exprssn (ng/mL) 0.03 mpk: 0.03 mpk i.v.; for EPO exprssn (ng/mL) 0.1 mpk: 0.1 mpk i.v.
factor VII = assay: Factor VII knock down evaluation (LNP with FVII siRNA); type: in vivo, Balb/C mice; details: plasma FVII after 48 h vs saline control; for FVII KD % 0.01 mpk: 0.01 mpk i.v.; for FVII KD % 0.03 mpk: 0.03 mpk i.v.
In short: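 Female Balb/C mice, 7–8 weeks old, received FVII siRNA lipid nanoparticles intravenously at 0.03 or 0.01 mg/kg. Plasma was collected 48 h later and FVII protein measured by chromogenic assay at 405 nm against a control plasma calibration curve. Levels are relative to saline-treated controls.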

[3] = In vivo biodegradability assay (lipid in liver); details: mouse liver, 48 h
Description: In vivo biodegradability assay was performed to assess the biodegradability of lipids in the LNP. Briefly, mice were injected with either 0.1 or 0.03 mg/Kg dose and after 24 or 48 hours mice livers were collected. To measure the concentration of lipids in the mouse liver, liver samples were homogenized in appropriate buffer in 1-10 dilution and mixed with the same amount of stabilized plasma. The samples were then mixed with organic solvents spiked with internal standard to precipitate proteins. After centrifugation, supernatant was diluted further with organic solvent before sample analysis by LC-MS. In LC-MS analysis, positive electrospray ionization was used, and multiple reaction monitoring (MRM) parameters were set up to specifically target the lipid analyte and internal standard. Calibration standards were prepared in stabilized plasma and mixed with same amount of homogenization buffer before protein precipitation. Quality control samples with known amounts of lipid was prepared in blank liver homogenate to monitor the precision and accuracy of the assay.

[4] = Measured pKa in the indicated formulation; details: for pKa: EPO: measured in EPO formulation; for pKa: FVII: measured in FVII formulation
Description: Measured pKa values were determined based on the pH measured in the indicated formulation (i.e., EPO or FVII formulation).

SMILES	Percent remaining in mouse plasma after 2 h (Mouse plasma stability; Table 2, mouse plasma 37 C)	In vivo degradability (ng/tissue) at 48h 0.03 mpk ([3]; Table 1)	In vivo degradability (ng/tissue) at 48h 0.1 mpk ([3]; Table 1)	In vivo degradability (ng/tissue) at 48h 0.03 mpk ([3]; Table 2)	In vivo degradability (ng/tissue) at 48h 0.1 mpk ([3]; Table 2)	pKa ([4]; EPO formulation)	pKa ([4]; FVII formulation)	pKa: FVII ([4]; Table 2)	Percent remaining in mouse plasma after 2 h (Mouse plasma stability; Table 1, mouse plasma 37 C)	pKa: EPO ([4]; Table 2)	EPO exprssn (ng/mL) 0.03 mpk (hEPO; Table 1)	EPO exprssn (ng/mL) 0.1 mpk (hEPO; Table 1)	EPO exprssn (ng/mL) 0.1 mpk (hEPO; Table 2)	FVII KD % 0.01 mpk (factor VII; Table 1)	FVII KD % 0.03 mpk (factor VII; Table 1)	FVII KD % 0.01 mpk (factor VII; Table 2)	FVII KD % 0.03 mpk (factor VII; Table 2)	EPO exprssn (ng/mL) 0.03 mpk (hEPO; Table 2)	other results
CN(C)CCCSC(=O)N(CCCC(=O)OC(COC(=O)CCc1ccc2ccccc2c1)COC(=O)CCc1ccc2ccccc2c1)CCCC(=O)OC(COC(=O)CCc1ccc2ccccc2c1)COC(=O)CCc1ccc2ccccc2c1 [Lipid 44, ((4,4′-((((3-(dimethylamino)propyl)thio)carbonyl)azanediyl)bis(butanoyl))bis(oxy))bis(propane-2,1,3-triyl)tetrakis(3-(naphthalen-2-yl)propanoate)]	–	–	–	–	–	–	–	–	–	–	–	–	–	–	–	–	–	–	Size (nm) [1]: 113.1 nm; EE % [1]: 85.7%; PDI [2]: 0.134
CC1CCC(CCC(=O)OCC(C)(COC(=O)CCC2CCC(C)CC2)COC(=O)CCN(CCC(=O)OCC(C)(COC(=O)CCC2CCC(C)CC2)COC(=O)CCC2CCC(C)CC2)C(=O)NCCCN(C)C)CC1 (stereo not shown) [Lipid 47, (((3,3′-((((3-dimethylamino)propyl)carbamoyl)azanediyl)bis(propanoyl))bis(oxy))bis(methylene))bis(2-methylpropane-2,1,3-triyl)tetrakis(3-(4-methylcyclohexyl)propanoate)]	–	–	–	–	–	–	–	–	–	–	–	–	–	–	–	–	–	–	Size (nm) [1]: 98.26 nm; EE % [1]: 98.9%; PDI [2]: 0.089
CC(CC1CCCCC1)C(=O)OCC(COC(=O)C(C)CC1CCCCC1)OC(=O)CCCN(CCCC(=O)OC(COC(=O)C(C)CC1CCCCC1)COC(=O)C(C)CC1CCCCC1)C(=O)SCCCN(C)C (stereo not shown) [LIPID 17, ((4,4′-((((3-(Dimethylamino)propyl)thio)carbonyl)azanediyl)bis(butanoyl))bis(oxy))bis(propane-2,1,3-triyl)tetrakis(3-cyclohexyl-2-methylpropanoate)]	100%	BLOQ	BLOQ	BLOQ	BLOQ	6.35	6.35	(6.35/6.35)	–	–	1082 ng/mL	1555 ng/mL	1082 ng/mL	55%	81%	55%	81%	–	pKa: EPO ([4]; Table 1): (6.35/
CCC1CCC(C(=O)OCC(COC(=O)C2CCC(CC)CC2)OC(=O)CCCN(CCCC(=O)OC(COC(=O)C2CCC(CC)CC2)COC(=O)C2CCC(CC)CC2)C(=O)SCCCN(C)C)CC1 (stereo not shown) [LIPID 16, ((4,4′-((((3-(Dimethylamino)propyl)thio)carbonyl)azanediyl)bis(butanoyl))bis(oxy))bis(propane-2,1,3-triyl)tetrakis(4-ethylcyclohexane-1-carboxylate)]	40%	<340 ng/tissue	<340 ng/tissue	<340 ng/tissue	<340 ng/tissue	6.5	6.45	–	40%	–	2088 ng/mL	6358 ng/mL	2088 ng/mL	58%	88%	58%	88%	–	pKa: EPO ([4]; Table 1): (6.50/; pKa: FVII ([4]; Table 1): 6.45)
CCCCCCCC(=O)OCC(COC(=O)CCCCCCC)OC(=O)CCCC(CCCC(=O)OC(COC(=O)CCCCCCC)COC(=O)CCCCCCC)SC(=O)CCCN(C)C [LIPID 4, bis(1,3-bis(Octanoyloxy)propan-2-yl) 5-((4-(dimethylamino)butanoyl)thio)nonanedioate]	13%	BLOQ	BLOQ	BLOQ	BLOQ	6.22	–	–	13%	(6.22/ND)	392 ng/mL	1108 ng/mL	1108 ng/mL	71%	33%	71%	33%	392 ng/mL	–

More lines, main results first:

Percent remaining in mouse plasma after 2 h (Mouse plasma stability; Table 2, mouse plasma 37 C)	In vivo degradability (ng/tissue) at 48h 0.03 mpk ([3]; Table 1)	In vivo degradability (ng/tissue) at 48h 0.1 mpk ([3]; Table 1)	In vivo degradability (ng/tissue) at 48h 0.03 mpk ([3]; Table 2)	In vivo degradability (ng/tissue) at 48h 0.1 mpk ([3]; Table 2)	pKa ([4]; EPO formulation)	pKa ([4]; FVII formulation)	pKa: FVII ([4]; Table 2)	Percent remaining in mouse plasma after 2 h (Mouse plasma stability; Table 1, mouse plasma 37 C)	pKa: EPO ([4]; Table 2)	SMILES	EPO exprssn (ng/mL) 0.03 mpk (hEPO; Table 1)	EPO exprssn (ng/mL) 0.1 mpk (hEPO; Table 1)	EPO exprssn (ng/mL) 0.1 mpk (hEPO; Table 2)	FVII KD % 0.01 mpk (factor VII; Table 1)	FVII KD % 0.03 mpk (factor VII; Table 1)	FVII KD % 0.01 mpk (factor VII; Table 2)	FVII KD % 0.03 mpk (factor VII; Table 2)	EPO exprssn (ng/mL) 0.03 mpk (hEPO; Table 2)	other results
14%	BLOQ	BLOQ	BLOQ	BLOQ	6.4	6.64	6.64	14%	6.4	CCCCCCCCC(=O)OCC(COC(=O)CCCCCCCC)OC(=O)CCCN(CCCC(=O)OC(COC(=O)CCCCCCCC)COC(=O)CCCCCCCC)C(=O)SCCCN(C)C [LIPID 1, ((4,4′-((((3-(Dimethylamino)propyl)thio)carbonyl)azanediyl)bis(butanoyl))bis(oxy))bis(propane-2,1,3-triyl)tetranonanoate]	432 ng/mL	1413 ng/mL	1413 ng/mL	84%	100%	84%	100%	432 ng/mL	–
15%	BLOQ	BLOQ	BLOQ	BLOQ	6.41	6.49	6.49	15%	6.41	CCCCCCCCC(=O)OCC(COC(=O)CCCCCCCC)OC(=O)CCCC(CCCC(=O)OC(COC(=O)CCCCCCCC)COC(=O)CCCCCCCC)OC(=O)CCCN(C)C.Cl [LIPID 3, bis(1,3-bis(Nonanoyloxy)propan-2-yl) 5-((4-(dimethylamino)butanoyl)oxy)nonanedioate HCl Salt]	191 ng/mL	471 ng/mL	471 ng/mL	51%	87%	51%	87%	191 ng/mL	–
40%	BLOQ	BLOQ	BLOQ	BLOQ	6.37	6.54	6.54	40%	6.37	CCCCCCCCC(=O)OCC(COC(=O)CCCCCCCC)OC(=O)CCC(CCC(=O)OC(COC(=O)CCCCCCCC)COC(=O)CCCCCCCC)OC(=O)CCCN(C)C [LIPID 5, bis(1,3-bis(Nonanoyloxy)propan-2-yl) 4-((4-(dimethylamino)butanoyl)oxy)heptanedioate]	87 ng/mL	533 ng/mL	533 ng/mL	90%	62%	90%	62%	87 ng/mL	–
74%	<340 ng/tissue	<340 ng/tissue	<340 ng/tissue	<340 ng/tissue	6.4	6.61	6.61	74%	6.40	CCCCCCCCC(=O)OCC(COC(=O)CCCCCCCC)OC(=O)CCN(CCC(=O)OC(COC(=O)CCCCCCCC)COC(=O)CCCCCCCC)C(=O)SCCCN(C)C [LIPID 13]	–	–	1488.1 ng/mL	60%	87%	60%	87%	–	–
